Values quoted from earlier work, collected in patent publication US12409146B2, “Solid lipid nanoparticle for intracellular release of active substances and method for production the same” (LEAD BIOTHERAPEUTICS LTD, priority 2017, dated 2025).
In brackets after ≈: the same amount, converted by molar mass.

- water solubility: 5.23 µg/mL (≈ 10 µM)
SMILES: C[C@@H]1C[C@H]2[C@@H]3CCC4=CC(=O)C=C[C@]4(C)[C@@]3(Cl)[C@@H](O)C[C@]2(C)[C@@]1(OC(=O)c1ccco1)C(=O)CCl [Mometasone furoate]
